Calls of active or inactive are those of the source. No rule for the calls is given here.
Tested on: rodent lifetime carcinogenesis bioassay, tumor incidence TD50
Test: carcinogenic potency in animals, long-term in vivo studies, CPDB compilation (AID 1745844)
[1] = mouse, strain B6AKF1, females, oral dosing, site: any site (literature study), lesion: several types, types named in the paper, dosed 76 weeks, study length 76 weeks
[2] = mouse, strain B6AKF1, females, oral dosing, site: liver, lesion: hepatoma, dosed 76 weeks, study length 76 weeks
[3] = mouse, strain B6AKF1, males, oral dosing, site: any site (literature study), lesion: several types, types named in the paper, dosed 76 weeks, study length 76 weeks
[4] = mouse, strain B6AKF1, males, oral dosing, site: liver, lesion: hepatoma, dosed 76 weeks, study length 76 weeks
[5] = mouse, strain B6AKF1, males, oral dosing, site: lung, lesion: adenoma, dosed 76 weeks, study length 76 weeks
[6] = mouse, strain B6C3F1, females, oral dosing, site: any site (literature study), lesion: several types, types named in the paper, dosed 76 weeks, study length 76 weeks
[7] = mouse, strain B6C3F1, females, oral dosing, site: liver, lesion: hepatoma, dosed 76 weeks, study length 76 weeks
[8] = mouse, strain B6C3F1, males, oral dosing, site: any site (literature study), lesion: several types, types named in the paper, dosed 76 weeks, study length 76 weeks
[9] = mouse, strain B6C3F1, males, oral dosing, site: liver, lesion: hepatoma, dosed 76 weeks, study length 76 weeks

## O=S1(=O)CCCO1
rat, strain Charles River CD (Sprague-Dawley), females, by gavage, site: all sites, lesion: granulocytic leukemia, dosed 46 weeks, study length 60 weeks
  TD50: 18.6 mg/kg/day
rat, strain Charles River CD (Sprague-Dawley), females, by gavage, site: cerebellum, lesion: malignant glioma, dosed 46 weeks, study length 60 weeks
  TD50: 7.2 mg/kg/day
rat, strain Charles River CD (Sprague-Dawley), females, by gavage, site: cerebrum, lesion: malignant glioma, dosed 46 weeks, study length 60 weeks
  TD50: 4.06 mg/kg/day
rat, strain Charles River CD (Sprague-Dawley), females, by gavage, site: mammary gland, lesion: adenocarcinoma, dosed 46 weeks, study length 60 weeks
  TD50: 4.13 mg/kg/day
rat, strain Charles River CD (Sprague-Dawley), females, by gavage, site: small intestine, lesion: adenocarcinoma, dosed 46 weeks, study length 60 weeks
  TD50: 31.7 mg/kg/day
rat, strain Charles River CD (Sprague-Dawley), males, by gavage, site: all sites, lesion: granulocytic leukemia, dosed 46 weeks, study length 60 weeks
  TD50: 23.5 mg/kg/day
rat, strain Charles River CD (Sprague-Dawley), males, by gavage, site: cerebellum, lesion: malignant glioma, dosed 46 weeks, study length 60 weeks
  TD50: 4.75 mg/kg/day
rat, strain Charles River CD (Sprague-Dawley), males, by gavage, site: cerebrum, lesion: malignant glioma, dosed 46 weeks, study length 60 weeks
  TD50: 3.64 mg/kg/day
rat, strain Charles River CD (Sprague-Dawley), males, by gavage, site: small intestine, lesion: adenocarcinoma, dosed 46 weeks, study length 60 weeks
  TD50: 15.4 mg/kg/day

## O=CCBr
mouse, strain B6C3F1, females, in drinking water, site: any site (literature study), lesion: several types, types named in the paper, dosed 80 weeks, study length 80 weeks
  carcinogen call: negative (inactive)
mouse, strain B6C3F1, females, in drinking water, site: forestomach, lesion: squamous-cell papilloma, dosed 80 weeks, study length 80 weeks
  TD50: 2520 mg/kg/day (inactive)
mouse, strain B6C3F1, females, in drinking water, site: liver, lesion: hemangioma, dosed 80 weeks, study length 80 weeks
  TD50: 1020 mg/kg/day (inactive)
mouse, strain B6C3F1, females, in drinking water, site: lung, lesion: one or several types, types not named, dosed 80 weeks, study length 80 weeks
  carcinogen call: negative (inactive)
mouse, strain B6C3F1, males, in drinking water, site: any site (literature study), lesion: several types, types named in the paper, dosed 78 weeks, study length 78 weeks
  carcinogen call: negative (inactive)
mouse, strain B6C3F1, males, in drinking water, site: forestomach, lesion: squamous-cell papilloma, dosed 78 weeks, study length 78 weeks
  TD50: 1890 mg/kg/day (inactive)
mouse, strain B6C3F1, males, in drinking water, site: liver, lesion: one or several types, types not named, dosed 78 weeks, study length 78 weeks
  carcinogen call: negative (inactive)
mouse, strain B6C3F1, males, in drinking water, site: lung, lesion: papillary tumor, dosed 78 weeks, study length 78 weeks
  carcinogen call: negative (inactive)

## O=NN1CCOC1
hamster, strain Syrian Golden, females, by gavage, site: forestomach, lesion: several types, types named in the paper, dosed 30 weeks, study length 104 weeks
  TD50: 2.61 mg/kg/day
hamster, strain Syrian Golden, males, by gavage, site: any site (literature study), lesion: several types, types named in the paper, dosed 35 weeks, study length 65 weeks
  TD50: 0.267 mg/kg/day
hamster, strain Syrian Golden, males, by gavage, site: liver, lesion: cholangiocarcinoma, dosed 35 weeks, study length 65 weeks
  TD50: 0.471 mg/kg/day
hamster, strain Syrian Golden, males, by gavage, site: liver, lesion: hepatocellular adenoma, dosed 35 weeks, study length 65 weeks
  TD50: 0.949 mg/kg/day
hamster, strain Syrian Golden, males, by gavage, site: liver, lesion: hepatocellular carcinoma, dosed 35 weeks, study length 65 weeks
  TD50: 2.63 mg/kg/day
hamster, strain Syrian Golden, males, by gavage, site: lung, lesion: carcinoma, dosed 35 weeks, study length 65 weeks
  TD50: 14.8 mg/kg/day

## O=NN1CCCN(N=O)C1
rat, strain Sprague-Dawley, males, i.p., site: paranasal sinus, lesion: squamous-cell carcinoma, dosed 104 weeks, study length 104 weeks
  TD50: 0.166 mg/kg/day

## [Cu+2].[O-]c1cccc2cccnc12.[O-]c1cccc2cccnc12
[1]
  TD50: 2490 mg/kg/day (inactive)
[2]
  carcinogen call: negative (inactive)
mouse, strain B6AKF1, females, oral dosing, site: lung, lesion: adenoma, dosed 76 weeks, study length 76 weeks
  carcinogen call: negative (inactive)
[3]
  TD50: 11200 mg/kg/day (inactive)
[4]
  TD50: 967 mg/kg/day (inactive)
[5]
  carcinogen call: negative (inactive)
[6]
  TD50: 2490 mg/kg/day (inactive)
[7]
  carcinogen call: negative (inactive)
mouse, strain B6C3F1, females, oral dosing, site: lung, lesion: several types, types named in the paper, dosed 76 weeks, study length 76 weeks
  carcinogen call: negative (inactive)
[8]
  TD50: 2050 mg/kg/day (inactive)
[9]
  carcinogen call: negative (inactive)
mouse, strain B6C3F1, males, oral dosing, site: lung, lesion: several types, types named in the paper, dosed 76 weeks, study length 76 weeks
  carcinogen call: negative (inactive)

## COc1ccc(N)c(C)c1
mouse, strain B6C3F1, females, by gavage, site: any site (literature study), lesion: several types, types named in the paper, dosed 53 weeks, study length 93 weeks
  TD50: 69.2 mg/kg/day
mouse, strain B6C3F1, females, by gavage, site: liver, lesion: hepatocellular adenoma + hepatocellular carcinoma + neoplastic nodule, dosed 53 weeks, study length 93 weeks
  TD50: 206 mg/kg/day
mouse, strain B6C3F1, females, by gavage, site: liver, lesion: hepatocellular adenoma + hepatocellular carcinoma, dosed 53 weeks, study length 93 weeks
  TD50: 206 mg/kg/day (inactive)
mouse, strain B6C3F1, females, by gavage, site: lung, lesion: alveolar/bronchiolar adenoma + alveolar/bronchiolar carcinoma, dosed 53 weeks, study length 93 weeks
  TD50: 250 mg/kg/day
mouse, strain B6C3F1, males, by gavage, site: any site (literature study), lesion: several types, types named in the paper, dosed 53 weeks, study length 93 weeks
  TD50: 72.2 mg/kg/day
rat, strain Fischer 344, females, by gavage, site: any site (literature study), lesion: several types, types named in the paper, dosed 77 weeks, study length 109 weeks
  TD50: 51.5 mg/kg/day
rat, strain Fischer 344, females, by gavage, site: liver, lesion: hepatocellular adenoma + hepatocellular carcinoma + neoplastic nodule, dosed 77 weeks, study length 109 weeks
  TD50: 1100 mg/kg/day
rat, strain Fischer 344, females, by gavage, site: mammary gland, lesion: fibroadenoma, dosed 77 weeks, study length 109 weeks
  TD50: 52.7 mg/kg/day
rat, strain Fischer 344, females, by gavage, site: urinary bladder, lesion: transitional-cell carcinoma, dosed 77 weeks, study length 109 weeks
  TD50: 769 mg/kg/day
rat, strain Fischer 344, males, by gavage, site: any site (literature study), lesion: several types, types named in the paper, dosed 77 weeks, study length 109 weeks
  TD50: 368 mg/kg/day
rat, strain Fischer 344, males, by gavage, site: liver, lesion: hepatocellular adenoma + hepatocellular carcinoma + neoplastic nodule, dosed 77 weeks, study length 109 weeks
  TD50: 506 mg/kg/day
rat, strain Fischer 344, males, by gavage, site: urinary bladder, lesion: transitional-cell carcinoma, dosed 77 weeks, study length 109 weeks
  TD50: 470 mg/kg/day

## S=C(S)NCCNC(=S)S
[1]
  carcinogen call: negative (inactive)
[2]
  carcinogen call: negative (inactive)
mouse, strain B6AKF1, females, oral dosing, site: lung, lesion: several types, types named in the paper, dosed 76 weeks, study length 76 weeks
  carcinogen call: negative (inactive)
[3]
  carcinogen call: negative (inactive)
[4]
  carcinogen call: negative (inactive)
[5]
  carcinogen call: negative (inactive)
[6]
  carcinogen call: negative (inactive)
[7]
  carcinogen call: negative (inactive)
mouse, strain B6C3F1, females, oral dosing, site: lung, lesion: adenoma, dosed 76 weeks, study length 76 weeks
  carcinogen call: negative (inactive)
[8]
  carcinogen call: negative (inactive)
[9]
  TD50: 866 mg/kg/day (inactive)
mouse, strain B6C3F1, males, oral dosing, site: lung, lesion: adenoma, dosed 76 weeks, study length 76 weeks
  carcinogen call: negative (inactive)

## O=NN1CCCN(N=O)CC1
rat, strain Fischer 344, females, in drinking water, site: esophagus, lesion: several types, types named in the paper, dosed 30 weeks, study length 133 weeks
  TD50: 0.253 mg/kg/day
rat, strain Fischer 344, females, in drinking water, site: esophagus, lesion: several types, types named in the paper, dosed 60 weeks, study length 82 weeks
  TD50: 0.0553 mg/kg/day
rat, strain Fischer 344, females, in drinking water, site: esophagus, lesion: several types, types named in the paper, dosed 120 weeks, study length 133 weeks
  TD50: 0.105 mg/kg/day
rat, strain Fischer 344, females, in drinking water, site: liver, lesion: several types, types named in the paper, dosed 30 weeks, study length 133 weeks
  carcinogen call: positive
rat, strain Fischer 344, females, in drinking water, site: liver, lesion: several types, types named in the paper, dosed 120 weeks, study length 133 weeks
  TD50: 0.0973 mg/kg/day
rat, strain Fischer 344, females, in drinking water, site: nasal cavity, lesion: olfactory carcinoma, dosed 30 weeks, study length 133 weeks
  carcinogen call: positive
rat, strain Fischer 344, females, in drinking water, site: nasal cavity, lesion: olfactory carcinoma, dosed 60 weeks, study length 82 weeks
  TD50: 0.207 mg/kg/day
rat, strain Fischer 344, females, in drinking water, site: tongue, lesion: basal-cell papilloma, dosed 120 weeks, study length 133 weeks
  TD50: 0.63 mg/kg/day
rat, strain Fischer 344, females, in drinking water, site: upper gastrointestinal tract, lesion: carcinoma, dosed 30 weeks, study length 133 weeks
  TD50: 0.24 mg/kg/day
rat, strain Fischer 344, females, in drinking water, site: upper gastrointestinal tract, lesion: carcinoma, dosed 60 weeks, study length 82 weeks
  TD50: 0.0469 mg/kg/day
rat, strain Fischer 344, females, in drinking water, site: upper gastrointestinal tract, lesion: several types, types named in the paper, dosed 30 weeks, study length 133 weeks
  TD50: 0.708 mg/kg/day
rat, strain Fischer 344, females, in drinking water, site: upper gastrointestinal tract, lesion: several types, types named in the paper, dosed 60 weeks, study length 82 weeks
  TD50: 0.0297 mg/kg/day
rat, strain Fischer 344, females, in drinking water, site: upper gastrointestinal tract, lesion: several types, types named in the paper, dosed 120 weeks, study length 133 weeks
  TD50: 0.0914 mg/kg/day

## Cc1ccc(-c2cc(C(F)(F)F)nn2-c2ccc(S(N)(=O)=O)cc2)cc1
rat, strain Fischer 344, males, in feed, site: colon, lesion: one or several types, types not named, dosed 53 weeks, study length 53 weeks
  carcinogen call: negative (inactive)

## CCCCCCCC/C=C/CCCCCCCC(=O)OCCOCC(OCCO)C1OCC(OCCO)C1OCCO (configuration not stated)
mouse, strain B6C3F1, females, in feed, site: any site (literature study), lesion: several types, types named in the paper, dosed 103 weeks, study length 104 weeks
  TD50: 42900 mg/kg/day (inactive)
mouse, strain B6C3F1, females, in feed, site: lung, lesion: alveolar/bronchiolar adenoma + alveolar/bronchiolar carcinoma, dosed 103 weeks, study length 104 weeks
  TD50: 332000 mg/kg/day
mouse, strain B6C3F1, males, in feed, site: any site (literature study), lesion: several types, types named in the paper, dosed 103 weeks, study length 104 weeks
  carcinogen call: negative (inactive)
rat, strain Fischer 344, females, in feed, site: liver, lesion: hepatocellular adenoma + hepatocellular carcinoma + neoplastic nodule, dosed 103 weeks, study length 104 weeks
  TD50: 15800 mg/kg/day
rat, strain Fischer 344, females, in feed, site: liver, lesion: hepatocellular adenoma, dosed 103 weeks, study length 104 weeks
  TD50: 15800 mg/kg/day (inactive)
rat, strain Fischer 344, males, in feed, site: adrenal medulla, lesion: pheochromocytoma benign, bilateral + pheochromocytoma, malignant + pheochromocytoma, benign, dosed 99 weeks, study length 99 weeks
  TD50: 2580 mg/kg/day
rat, strain Fischer 344, males, in feed, site: any site (literature study), lesion: several types, types named in the paper, dosed 99 weeks, study length 99 weeks
  TD50: 3290 mg/kg/day
rat, strain Fischer 344, males, in feed, site: liver, lesion: hepatocellular adenoma + hepatocellular carcinoma + neoplastic nodule, dosed 99 weeks, study length 99 weeks
  TD50: 217000 mg/kg/day

From PubChem BioAssay AID1745844 (Carcinogenic Potency Database (CPDB), 2022)
